Laboratory results taken from patent US10786491B2, “Immunomodulation by IAP inhibitors” (Novartis AG, priority 2008, dated 2020).

Columns and labels:
[1] = system: BALB/c splenic CD4+ T cells; test: Survival and apoptosis of anti-CD3/anti-CD28 activated CD4+ T cells; type: cell-based, BALB/c mice
Method: The role of IAP family members in mature NKT cell survival was assessed. […] After 24 hours viable cells were quantified by trypan blue exclusion, and the resulting cell counts are depicted in FIG. 2A. Apoptotic cells were quantified in the cultures from FIG. 2A using flow cytometry with annexin V and 7-AAD (results are depicted in FIG. 2B).

BALB/c spleen cells = test: Cytokine secretion of α-galcer stimulated spleen cells (ELISA); type: cell-based, BALB/c mice; conditions: 500 nM, 48 hours, versus control compound
Method: In order to determine the functional consequences of IAP inhibition in NKT cells, spleen cells from BALB/c mice were stimulated with the NKT cell specific agonist α-galactosylceramide (α-galcer). […]. After 48 hours, cytokine levels were measured in the culture supernatants by ELISA, and the results are depicted in FIG. 3A (IFNγ) and FIG. 3B (IL-2). […].

splenic CD4+ T cells = test: IL-2 production of anti-CD3/anti-CD28 stimulated CD4+ T cells (ELISA); type: cell-based, BALB/c mice
CD8+ T cells = test: Cytokine production of stimulated CD8+ T cells (ELISA); type: cell-based, C57BL/6 mice; conditions: anti-CD3 and anti-CD28; 48 hours
Method: Because the observed effect of IAP inhibition in T cells could still depend on alterations in NKT cell function, the consequences of IAP inhibition were assessed in NKT cell deficient CD1d knockout C57BL/6 mice. […] The effect of IAP inhibition was not limited to CD4+ T cells, as CD8+ T cells similarly produced excess IFN-γ and IL-2 after stimulation in the presence of IAP inhibitors (FIG. 5).

JNK and NF-κB pathways = test: Western blot of JNK phosphorylation and IκB degradation in stimulated CD4+ T cells; type: cell-based
Method: In order to investigate the mechanism linking IAP inhibition to enhanced, activation-dependent cytokine production, the effect of IAP inhibition on JNK phosphorylation and IκB degradation in stimulated CD4+ T cells was assessed by Western blot. […] Replicates were combined and cell lysates were analyzed by Western blot for the indicated proteins. PDI was used as a loading control.

[2] = system: BALB/c spleen cells cultured with irradiated C57BL/6 spleen cells; test: Allo-reactivity: six day mixed lymphocyte reaction and restimulation; type: cell-based, BALB/c mice; conditions: 500 nM, six days
Method: After six days, cultures were harvested and cytokine production and spleen cell proliferation was analyzed. […] Cytokines were measured in cell supernatants by ELISA. […] At the conclusion of the cultures described in FIG. 9A, total viable cells were counted by trypan blue exclusion and immune cell subsets were identified by flow cytometry using the markers indicated in FIG. 9B. […] Substantial B cell proliferation occurred in IAP inhibited cultures (FIG. 9B). The activation enhancing effects of IAP inhibition were readily reversed; in allo-reactive T cells, secondary stimulations with anti-CD3 in the absence of inhibitors led to equivalent responses regardless of the previous culture conditions (FIG. 10). Cells stimulated in a six day mixed lymphocyte reaction were recovered and restimulated with anti-CD3 for 48 hours. Cytokines were measured in culture supernatants by ELISA. Sample labels indicated in FIG. 10 refer to the treatment used during the primary stimulation.

[3] = system: CD4+ T cells from MLIAP transgenic mice; test: IL-2 production of ML-IAP transgenic CD4+ T cells (ELISA); type: cell-based, BALB/c mice; conditions: anti-CD3 and anti-CD28; 48 hours
Source text: Whether overexpression of ML-IAP, an endogenous SMAC binding protein, could alter the response of T cells to activating stimuli was also examined.

B16 mouse melanoma cells = test: B16 vaccination and live tumor challenge in vivo; design: species or system mice; conditions: single oral dose 150 mg/kg in combination with irradiated B16 vaccine; compared with LBW-242 or vaccine alone; days 7-16
Method: . Irradiated B16 mouse melanoma cells (vaccine) were administered to mice on days −14 and −7 with or without a single oral dose of LBW-242 (150 mg/kg). Live B16 tumor cells were implanted into the mice on day 0 (challenge). Tumor volume was measured at 7, 10, 13 and 16 days following the live cell implant. […].

[4] = system: CD4+ T cells from XIAP KO mice; test: IL-2 production of XIAP knockout CD4+ T cells (ELISA); conditions: anti-CD3 and anti-CD28; 48 hours; versus LCV-843
[5] = system: bone marrow derived dendritic cells; test: IL-12 p40 production of bone marrow derived dendritic cells (ELISA); conditions: 500 nM; cluster disruption; 24 hours
B cells = conditions: 500 nM; anti-IgM and anti-CD40; 96 hours; compared to control cells
Method: Because the JNK and NF-κB pathways play important roles in signaling down stream of a wide range of immune receptors, we analyzed the effect of IAP inhibitors in several additional immune populations. […] IL-6 was measured in the culture supernatant by ELISA.

[6] = 500 nM, anti-CD3 and anti-CD28, 24 hours
[7] = versus control compound LCV-843

CN[C@H](C)C(=O)N[C@@H](C(=O)N1CCC2CCN(CCc3ccccc3)CC21)C1CCCCC1 (stereo in doubt) [LBW-242, N-[1-cyclohexyl-2-oxo-2-(6-phenethyl-octahydro-pyrrolo[2,3-c]pyridin-1-yl)-ethyl]-2-methylamino-propionamide]
NKT cells in culture (anti-CD3 and α-galcer loaded CD1d tetramers) ([1]; 500 nM, 24 hours): still detectable in culture at normal frequencies
apoptosis (annexin V and 7-AAD) [1, 6]: nor did it contribute to apoptosis
total number of T cells (viable cells, trypan blue exclusion) [1, 6]: did not alter
apoptosis in the absence of stimulation ([1]; no stimulation): no discernible effect
IFN-γ secretion (BALB/c spleen cells): increased secretion
IL-2 secretion (BALB/c spleen cells): increased secretion
effects from IAP inhibition in the absence of stimulation (splenic CD4+ T cells; isotype control, no stimulation): No effects
IL-2 production (splenic CD4+ T cells; unfractionated BALB/c or C57BL/6 CD4+ T cells, anti-CD3 and anti-CD28, 48 hours): similar, dose-dependent effect
IFN-γ production (CD8+ T cells): excess
IL-2 production (CD8+ T cells): excess
bcl-10 levels in activated T cells (JNK and NF-κB pathways; 500 nM): did not lead to a detectable change
activation of JNK and NF-κB pathways (JNK phosphorylation, IκB degradation) (JNK and NF-κB pathways; 500 nM, anti-CD3 and anti-CD28, versus control compound LCV-843): activated more rapidly
JNK phosphorylation and IκB degradation in the absence of stimulation (JNK and NF-κB pathways; no stimulation): No changes
B cell proliferation [2]: Substantial
CD4 T cell proliferation [2]: significant
IFN-γ secretion [2, 7]: significantly enhanced
IL-2 levels [2, 7]: significantly reduced
reduced IL-2 secretion of ML-IAP transgenic T cells [3]: could be modulated
tumor burden following challenge with live B16 cells (B16 mouse melanoma cells): reduced
cytokine (IL-2) secretion of XIAP deficient T cells [4]: only a small increase
IL-12 p40 production, partially activated DCs [5]: increased
IL-6 production (B cells): increased
